According to patent publication US20240366594A1, “Small Molecule Inhibitors of Formation of Neutrophil-Derived Extracellular Traps (NETosis) and Uses Thereof” (The Brigham and Women's Hospital, Inc., priority 2021, published 2024):

Legend:
[1] = tested on: primary human neutrophils; experiment: Extracellular DNA release by PMA-activated human neutrophils; type: cell-based; settings: 1 μM GSK484 for 1 h, then 1 μM PMA for 4 hours; FIG. 5A
Procedure: (§1) FIGS. 5A-J. Class I/II HDACs drive NET formation. • A) Quantification of extracellular DNA released by neutrophils treated, or not, with 1 μM GSK484 for 1 h and then stimulated with 1 μM PMA for 4 hours. Unstimulated, neutrophils not treated with drugs were used as a control. • B) Freshly purified human neutrophils were treated with the indicated HDAC inhibitors at different doses (0.08, 0.4, 2 and 10 μM) for 1 hour. Extracellular DNA release was assessed in the supernatant 3 hours after PMA stimulation. The dotted line represents the amount of DNA released from neutrophils treated with PMA alone. […] NETosis induction was measured as level of anti-CitH3 fluorescent signal. […] NET induction was measured as in (C). […] NETosis induction was measured as level of anti-CitH3 fluorescent signal. […] NET induction was measured as in (F). • H, I) Freshly isolated neutrophils from two different donors were treated with different doses of ricolinostat, citarinostat (10, 2, 0.4, 0.08 μM) or GSK484 (10, 5, 2 μM) for 1 h and then stimulated with 1 μM PMA. NET induction was measured as level of anti-CitH3 fluorescent signal (H) and by microscopy as number of cells positive for CitH3 signal per field of view (FOV) (I). […] NET induction was measured as level of anti-CitH3 fluorescent signal. […] Statistics were calculated using One-way ANOVA (A, E, I) and Two-way ANOVA (B, F, G, H, L). […]

Murine neutrophils = experiment: NET induction in response to nigericin in murine neutrophils; type: cell-based, mouse; parameters: dose or concentration left out as unconfirmed; settings: nigericin for 3 hours; FIG. 5E
Procedure: as §1

[2] = tested on: neutrophils that lack HDAC6; experiment: NET induction in PMA-stimulated neutrophils from HDAC6KO mice; type: cell-based, mouse; settings: ricolinostat 10, 2, 0.4, 0.08 μM, then PMA; FIG. 5G
Procedure: as §1

**Q.** For `COc1cc(C(=O)N2CC[C@@H](O)[C@@H](N)C2)cc2nc(-c3cc4ccccc4n3CC3CC3)n(C)c12` [GSK484], which “extracellular DNA released by PMA-treated neutrophils” value [1] is on record?
**A.** significant decrease

**Q.** How did the “NET induction in response to nigericin (anti-CitH3 signal)” value (Murine neutrophils) turn out when `O=C(CCCCCCNC(=O)c1cnc(N(c2ccccc2)c2ccccc2)nc1)NO` [ricolinostat] was run?
**A.** inhibited NET induction

**Q.** What about the “NET induction in HDAC6-lacking neutrophils” value [2] of the same molecule?
**A.** remained sensitive
